Experimental data as given in patent publication US4835251A, “Method of chain combination” (Genetech, Inc., priority 1986, dated 1989).
Ends that are not written are not given here.

Test system: interpubic ligament
Test: murine pubic symphysis assay (MPS)
Format: in vivo, mice
Settings: for biological activity in the MPS assay (biological dose response comparison): estradiol-primed female mice, subcutaneous injection, ligament measured 18-20 hours later
Procedure: The human relaxin and human relaxin analogs were tested in bioassays. The murine pubic symphysis assay (MPS) uses Charles River albino CFW female mice weighing 18-20 g., J. St. Louis, Can. J. Physiol. Pharmacol. 59, 507-512 (1981). Estradiol priming solution is 5 μg estradiol 17β-cyclopentylpropionate in 0.1 ml peanut oil. Human relaxin dose solutions are at concentrations of 2.5, 5.0, 10.0, 20.0, 40.0, and 80.0 μg/ml in a 1% water solution of benzopurpurine 4B. When mice have been housed for at least six days in quarantine and weigh 18-20 g, each one is given a subcutaneous injection of estradiol priming solution. Exactly seven days later mice are injected subcutaneously with 0.2 ml of the appropriate human relaxin dose solution. Between 18 and 20 hours after the human relaxin injection the mice were sacrificed by cervical dislocation. The interpubic ligament is exposed and measured with a micrometer.
The rat uterine contractility in vitro bioassay measures human relaxin ability to relax smooth muscle in the presence of electrically stimulated contractions, J. St. Louis, (1981) Can. J. Physiol. Pharmacol. 59, 507-512. The murine pubic symphysis ligament in vivo bioassay measures relaxin's remodeling effect on connective tissue, Steinetz, B. G. et al. (1960) Endocrinology 67, 102. […] The MPS does responses indicate equipotence for natural human relaxin and H2(B2-33 A24) B Lys^4 B Ala^25, FIG. 3. […] All of the human analogues and natural sequence human relaxin are essentially indistinguishable in the MPS bioassay.

Row | Compound | biological activity in the MPS assay (biological dose response comparison) | MPS dose response curve, slope / parallelism relative to the other relaxins (mouse, in vivo)
1 | CC[C@H](C)[C@@H]1NC(=O)[C@H](C)NC(=O)[C@H]([C@@H](C)CC)NC(=O)[C@H](CCC(N)=O)NC(=O)[C@H](C)NC(=O)[C@H](CCCNC(=N)N)NC(=O)[C@H](C(C)C)NC(=O)[C@H](CC(C)C)NC(=O)[C@H](CCC(=O)O)NC(=O)[C@H](CCCNC(=N)N)NC(=O)CNC(=O)[C@@H](NC(=O)[C@H](CC(C)C)NC(=O)[C@H](CCCCN)NC(=O)[C@@H](NC(=O)[C@@H](NC(=O)[C@H](CCC(=O)O)NC(=O)[C@H](CCC(=O)O)NC(=O)[C@H](CCCCN)NC(=O)[C@H](Cc2c[nH]c3ccccc23)NC(=O)[C@@H](N)CO)C(C)C)[C@@H](C)CC)CSSC[C@@H]2NC(=O)[C@@H](NC(=O)[C@H](CCCCN)NC(=O)[C@H](CC(N)=O)NC(=O)[C@H](C)NC(=O)[C@H](CC(C)C)NC(=O)[C@H](C)NC(=O)[C@H](CO)NC(=O)[C@H](Cc3ccc(O)cc3)NC(=O)[C@H](CC(C)C)NC(=O)[C@@H]3CCC(=O)N3)CSSC[C@H](NC(=O)CNC(=O)[C@H](C(C)C)NC(=O)[C@H](Cc3c[nH]cn3)NC2=O)C(=O)N[C@@H]([C@@H](C)O)C(=O)N[C@@H](CCCCN)C(=O)N[C@@H](CCCNC(=N)N)C(=O)N[C@@H](CO)C(=O)N[C@@H](CC(C)C)C(=O)N[C@@H](C)C(=O)N[C@@H](CCCNC(=N)N)C(=O)N[C@@H](Cc2ccccc2)C(=O)N[C@H](C(=O)O)CSSC[C@@H](C(=O)NCC(=O)N[C@@H](C)C(=O)N[C@@H](CO)C(=O)N[C@H](C(=O)N[C@@H](Cc2c[nH]c3ccccc23)C(=O)N[C@@H](CO)C(=O)N[C@@H](CCCCN)C(=O)N[C@@H](CCCNC(=N)N)C(=O)N[C@@H](CO)C(=O)N[C@@H](CC(C)C)C(=O)O)[C@@H](C)O)NC1=O | biological activity | 
2 | CC[C@H](C)[C@@H]1NC(=O)[C@H](C)NC(=O)[C@H]([C@@H](C)CC)NC(=O)[C@H](CCC(N)=O)NC(=O)[C@H](C)NC(=O)[C@H](CCCNC(=N)N)NC(=O)[C@H](C(C)C)NC(=O)[C@H](CC(C)C)NC(=O)[C@H](CCC(=O)O)NC(=O)[C@H](CCCNC(=N)N)NC(=O)CNC(=O)[C@@H](NC(=O)[C@H](CC(C)C)NC(=O)[C@H](CCCCN)NC(=O)[C@@H](NC(=O)[C@@H](NC(=O)[C@H](CCC(=O)O)NC(=O)[C@H](CCC(=O)O)NC(=O)[C@H](CCCCN)NC(=O)[C@H](Cc2c[nH]c3ccccc23)NC(=O)[C@H](CO)NC(=O)[C@@H](N)CC(=O)O)C(C)C)[C@@H](C)CC)CSSC[C@@H]2NC(=O)[C@@H](NC(=O)[C@H](CCCCN)NC(=O)[C@H](CC(N)=O)NC(=O)[C@H](C)NC(=O)[C@H](CC(C)C)NC(=O)[C@H](C)NC(=O)[C@H](CO)NC(=O)[C@H](Cc3ccc(O)cc3)NC(=O)[C@H](CC(C)C)NC(=O)[C@@H]3CCC(=O)N3)CSSC[C@H](NC(=O)CNC(=O)[C@H](C(C)C)NC(=O)[C@H](Cc3c[nH]cn3)NC2=O)C(=O)N[C@@H]([C@@H](C)O)C(=O)N[C@@H](CCCCN)C(=O)N[C@@H](CCCNC(=N)N)C(=O)N[C@@H](CO)C(=O)N[C@@H](CC(C)C)C(=O)N[C@@H](C)C(=O)N[C@@H](CCCNC(=N)N)C(=O)N[C@@H](Cc2ccccc2)C(=O)N[C@H](C(=O)O)CSSC[C@@H](C(=O)NCC(=O)N[C@@H](C)C(=O)N[C@@H](CO)C(=O)N[C@H](C(=O)N[C@@H](Cc2c[nH]c3ccccc23)C(=O)N[C@@H](CO)C(=O)N[C@@H](CCCCN)C(=O)N[C@@H](CCCNC(=N)N)C(=O)N[C@@H](CO)C(=O)N[C@@H](CC(C)C)C(=O)O)[C@@H](C)O)NC1=O | biological activity | 
3 | porcine relaxin: Porcine relaxin, used for the standard curve in the RUC assay and compared in MPS (Relaxin B chain QSTNDFIKACGRELVRLWVEICGSVSWGRTAL; Relaxin A chain RMTLSEKCCQVGCIRKDIARLC; not fully specified; ends and bridges not checked; UniProt P01348 25-56; P01348 161-182, looked up) [reference compound] |  | non-parallel response
